# Reference: PubChem BioAssay AID2060328 (Molecular Pharmacology Branch, DTP, NCI, 2025)
# System: MDA-MB-231 multicell spheroids, viability (%T/C)
# Assay: Anticancer human tumor MDA-MB-231 cell line growth inhibition [IpAb];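 further: viability read after seven days of drug exposure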;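 on viability, T/C: 100% = DMSO vehicle control viability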
# Details: for IC50: curve of first compound; for viability, T/C: stronger effect = lower value
# Procedure, shortened: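 Combinations with ipatasertib or abemaciclib were tested on tumour spheroids holding HUVEC (25%) and MSC (15%) alongside 60% malignant cells. Top concentration was at or near clinical Cmax (10 microM if undefined), descending in half-log steps.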
# [1] = second compound 0.01 µM, first compound 0.0316 µM
# [2] = second compound 0.01 µM, first compound 0.1 µM
# [3] = second compound 0.01 µM, first compound 0.316 µM
# [4] = second compound 0.01 µM, first compound 1 µM
# [5] = second compound 0.01 µM, first compound 3.16 µM
# [6] = second compound 0.01 µM, first compound 10 µM
# [7] = second compound 0.0316 µM, first compound 0.0316 µM
# [8] = second compound 0.0316 µM, first compound 0.1 µM
# [9] = second compound 0.0316 µM, first compound 0.316 µM
# [10] = second compound 0.0316 µM, first compound 1 µM
# [11] = second compound 0.0316 µM, first compound 3.16 µM
# [12] = second compound 0.0316 µM, first compound 10 µM
# [13] = second compound 0.1 µM, first compound 0.0316 µM
# [14] = second compound 0.1 µM, first compound 0.1 µM
# [15] = second compound 0.1 µM, first compound 0.316 µM
# [16] = second compound 0.1 µM, first compound 1 µM
# [17] = second compound 0.1 µM, first compound 3.16 µM
# [18] = second compound 0.1 µM, first compound 10 µM
# [19] = second compound 0.316 µM, first compound 0.0316 µM
# [20] = second compound 0.316 µM, first compound 0.1 µM
# [21] = second compound 0.316 µM, first compound 0.316 µM
# [22] = second compound 0.316 µM, first compound 1 µM
# [23] = second compound 0.316 µM, first compound 3.16 µM
# [24] = second compound 0.316 µM, first compound 10 µM
# [25] = second compound 1 µM, first compound 0.0316 µM
# [26] = second compound 1 µM, first compound 0.1 µM
# [27] = second compound 1 µM, first compound 0.316 µM
# [28] = second compound 1 µM, first compound 1 µM
# [29] = second compound 1 µM, first compound 3.16 µM
# [30] = second compound 1 µM, first compound 10 µM
structure (smiles),measurement,setting,value
C=CCn1c(=O)c2cnc(Nc3ccc(N4CCN(C)CC4)cc3)nc2n1-c1cccc(C(C)(C)O)n1 + CCN1CCN(Cc2ccc(Nc3ncc(F)c(-c4cc(F)c5nc(C)n(C(C)C)c5c4)n3)nc2)CC1,IC50,second compound 0.01 µM,239 nM
same,IC50,second compound 0.0316 µM,208 nM
same,IC50,second compound 0.1 µM,177 nM
same,IC50,second compound 0.316 µM,33.4 nM
same,IC50,second compound 1 µM,325 nM
same,"viability, T/C",[1],88.8%
same,"viability, T/C",[2],85%
same,"viability, T/C",[3],38.6%
same,"viability, T/C",[4],20.3%
same,"viability, T/C",[5],15.4%
same,"viability, T/C",[6],20%
same,"viability, T/C",[7],80.1%
same,"viability, T/C",[8],69.3%
same,"viability, T/C",[9],38.9%
same,"viability, T/C",[10],23%
same,"viability, T/C",[11],17.9%
same,"viability, T/C",[12],20%
same,"viability, T/C",[13],59.8%
same,"viability, T/C",[14],56.8%
same,"viability, T/C",[15],43.1%
same,"viability, T/C",[16],26.1%
same,"viability, T/C",[17],19.9%
same,"viability, T/C",[18],21.2%
same,"viability, T/C",[19],47.4%
same,"viability, T/C",[20],48.7%
same,"viability, T/C",[21],42.5%
same,"viability, T/C",[22],32.9%
same,"viability, T/C",[23],24.8%
same,"viability, T/C",[24],26.4%
same,"viability, T/C",[25],51.8%
same,"viability, T/C",[26],51.7%
same,"viability, T/C",[27],50.5%
same,"viability, T/C",[28],48.5%
same,"viability, T/C",[29],41%
same,"viability, T/C",[30],36.5%
CCCS(=O)(=O)Nc1ccc(F)c(C(=O)c2c[nH]c3ncc(-c4ccc(Cl)cc4)cc23)c1F + CCN1CCN(Cc2ccc(Nc3ncc(F)c(-c4cc(F)c5nc(C)n(C(C)C)c5c4)n3)nc2)CC1,IC50,second compound 0.01 µM,6840 nM
same,IC50,second compound 0.0316 µM,4640 nM
same,IC50,second compound 0.1 µM,2900 nM
same,IC50,second compound 0.316 µM,887 nM
same,IC50,second compound 1 µM,550 nM
same,"viability, T/C",[1],105%
same,"viability, T/C",[2],104%
same,"viability, T/C",[3],110%
same,"viability, T/C",[4],93.9%
same,"viability, T/C",[5],70.5%
same,"viability, T/C",[6],40.1%
same,"viability, T/C",[7],82.9%
same,"viability, T/C",[8],87.4%
same,"viability, T/C",[9],86.4%
same,"viability, T/C",[10],80.2%
same,"viability, T/C",[11],57.6%
same,"viability, T/C",[12],34.9%
same,"viability, T/C",[13],70.5%
same,"viability, T/C",[14],66.4%
same,"viability, T/C",[15],66.6%
same,"viability, T/C",[16],62.8%
same,"viability, T/C",[17],48.8%
same,"viability, T/C",[18],32.9%
same,"viability, T/C",[19],52.8%
same,"viability, T/C",[20],53.5%
same,"viability, T/C",[21],51%
same,"viability, T/C",[22],47.8%
same,"viability, T/C",[23],44.3%
same,"viability, T/C",[24],23.4%
same,"viability, T/C",[25],51.9%
same,"viability, T/C",[26],55%
same,"viability, T/C",[27],53.1%
same,"viability, T/C",[28],45.6%
same,"viability, T/C",[29],43.8%
same,"viability, T/C",[30],32.6%
CCN1CCN(Cc2ccc(Nc3ncc(F)c(-c4cc(F)c5nc(C)n(C(C)C)c5c4)n3)nc2)CC1,"viability, T/C",compound 0.01 µM,88.6% [middle of 13 runs]
same,"viability, T/C",compound 0.0316 µM,74.8% [middle of 13 runs]
same,"viability, T/C",compound 0.1 µM,58.9% [middle of 13 runs]
same,"viability, T/C",compound 0.316 µM,46.5% [middle of 13 runs]
same,"viability, T/C",compound 1 µM,48.8% [middle of 13 runs]
CC(=O)c1c(C)c2cnc(Nc3ccc(N4CCNCC4)cn3)nc2n(C2CCCC2)c1=O + CCN1CCN(Cc2ccc(Nc3ncc(F)c(-c4cc(F)c5nc(C)n(C(C)C)c5c4)n3)nc2)CC1,IC50,second compound 0.01 µM,59.4 nM
same,IC50,second compound 0.0316 µM,44.3 nM
same,IC50,second compound 0.1 µM,18.1 nM
same,IC50,second compound 0.316 µM,1.19 nM
same,IC50,second compound 1 µM,> 300 nM
same,"viability, T/C","second compound 0.01 µM, first compound 0.000949 µM",87.9%
same,"viability, T/C","second compound 0.01 µM, first compound 0.003 µM",82.1%
same,"viability, T/C","second compound 0.01 µM, first compound 0.00949 µM",74.1%
same,"viability, T/C","second compound 0.01 µM, first compound 0.03 µM",55.2%
same,"viability, T/C","second compound 0.01 µM, first compound 0.0949 µM",46.3%
same,"viability, T/C","second compound 0.01 µM, first compound 0.3 µM",43.1%
same,"viability, T/C","second compound 0.0316 µM, first compound 0.000949 µM",71.8%
same,"viability, T/C","second compound 0.0316 µM, first compound 0.003 µM",71.5%
same,"viability, T/C","second compound 0.0316 µM, first compound 0.00949 µM",66.8%
same,"viability, T/C","second compound 0.0316 µM, first compound 0.03 µM",52.8%
same,"viability, T/C","second compound 0.0316 µM, first compound 0.0949 µM",44.4%
same,"viability, T/C","second compound 0.0316 µM, first compound 0.3 µM",40.4%
same,"viability, T/C","second compound 0.1 µM, first compound 0.000949 µM",60%
same,"viability, T/C","second compound 0.1 µM, first compound 0.003 µM",59.2%
same,"viability, T/C","second compound 0.1 µM, first compound 0.00949 µM",54%
same,"viability, T/C","second compound 0.1 µM, first compound 0.03 µM",47.1%
same,"viability, T/C","second compound 0.1 µM, first compound 0.0949 µM",41%
same,"viability, T/C","second compound 0.1 µM, first compound 0.3 µM",41.8%
same,"viability, T/C","second compound 0.316 µM, first compound 0.000949 µM",49.2%
same,"viability, T/C","second compound 0.316 µM, first compound 0.003 µM",50.9%
same,"viability, T/C","second compound 0.316 µM, first compound 0.00949 µM",46.2%
same,"viability, T/C","second compound 0.316 µM, first compound 0.03 µM",44.7%
same,"viability, T/C","second compound 0.316 µM, first compound 0.0949 µM",44%
same,"viability, T/C","second compound 0.316 µM, first compound 0.3 µM",42%
same,"viability, T/C","second compound 1 µM, first compound 0.000949 µM",55.4%
same,"viability, T/C","second compound 1 µM, first compound 0.003 µM",58.5%
same,"viability, T/C","second compound 1 µM, first compound 0.00949 µM",53.8%
same,"viability, T/C","second compound 1 µM, first compound 0.03 µM",53.4%
same,"viability, T/C","second compound 1 µM, first compound 0.0949 µM",52.8%
same,"viability, T/C","second compound 1 µM, first compound 0.3 µM",48.9%
C=CC(=O)N1CCN(c2nc(=O)n(-c3c(C)ccnc3C(C)C)c3nc(-c4c(O)cccc4F)c(F)cc23)C(C)C1 (stereo not given) + CCN1CCN(Cc2ccc(Nc3ncc(F)c(-c4cc(F)c5nc(C)n(C(C)C)c5c4)n3)nc2)CC1,IC50,second compound 0.01 µM,> 10000 nM
same,IC50,second compound 0.0316 µM,> 10000 nM
same,IC50,second compound 0.1 µM,> 10000 nM
same,IC50,second compound 0.316 µM,> 10000 nM
same,IC50,second compound 1 µM,> 10000 nM
same,"viability, T/C",[1],91.9%
same,"viability, T/C",[2],93.1%
same,"viability, T/C",[3],107%
same,"viability, T/C",[4],120%
same,"viability, T/C",[5],111%
same,"viability, T/C",[6],76.3%
same,"viability, T/C",[7],78.5%
same,"viability, T/C",[8],88.4%
same,"viability, T/C",[9],89.9%
same,"viability, T/C",[10],101%
same,"viability, T/C",[11],92.3%
same,"viability, T/C",[12],66.4%
same,"viability, T/C",[13],61.3%
same,"viability, T/C",[14],66.2%
same,"viability, T/C",[15],73.8%
same,"viability, T/C",[16],84.4%
same,"viability, T/C",[17],74%
same,"viability, T/C",[18],59.1%
same,"viability, T/C",[19],48.3%
same,"viability, T/C",[20],51.3%
same,"viability, T/C",[21],58.6%
same,"viability, T/C",[22],65.9%
same,"viability, T/C",[23],60.7%
same,"viability, T/C",[24],59%
same,"viability, T/C",[25],50.8%
same,"viability, T/C",[26],56.2%
same,"viability, T/C",[27],61.1%
same,"viability, T/C",[28],67.1%
same,"viability, T/C",[29],71.7%
same,"viability, T/C",[30],61.8%
Cn1ncc(Cl)c1-c1cc(C(=O)NC(CN)Cc2cccc(F)c2)sc1Cl (stereo not given) + CC(C)NCC(C(=O)N1CCN(c2ncnc3c2C(C)CC3O)CC1)c1ccc(Cl)cc1,IC50,second compound 0.1 µM,1590 nM
same,IC50,second compound 0.316 µM,1270 nM
same,IC50,second compound 1 µM,1100 nM
same,IC50,second compound 3.16 µM,471 nM
same,IC50,second compound 10 µM,< 31.6 nM
same,"viability, T/C",[13],99.1%
same,"viability, T/C",[14],88%
same,"viability, T/C",[15],80.3%
same,"viability, T/C",[16],61.8%
same,"viability, T/C",[17],33%
same,"viability, T/C",[18],0.11%
same,"viability, T/C",[19],70.7%
same,"viability, T/C",[20],79.4%
same,"viability, T/C",[21],71.2%
same,"viability, T/C",[22],49%
same,"viability, T/C",[23],34.3%
same,"viability, T/C",[24],0.12%
same,"viability, T/C",[25],74.1%
same,"viability, T/C",[26],71.9%
same,"viability, T/C",[27],63.1%
same,"viability, T/C",[28],50.6%
same,"viability, T/C",[29],32.8%
same,"viability, T/C",[30],0.11%
same,"viability, T/C","second compound 3.16 µM, first compound 0.0316 µM",57.3%
same,"viability, T/C","second compound 3.16 µM, first compound 0.1 µM",59.1%
same,"viability, T/C","second compound 3.16 µM, first compound 0.316 µM",49.7%
same,"viability, T/C","second compound 3.16 µM, first compound 1 µM",43%
same,"viability, T/C","second compound 3.16 µM, first compound 3.16 µM",33.6%
same,"viability, T/C","second compound 3.16 µM, first compound 10 µM",0.34%
same,"viability, T/C","second compound 10 µM, first compound 0.0316 µM",42.2%
same,"viability, T/C","second compound 10 µM, first compound 0.1 µM",41.1%
same,"viability, T/C","second compound 10 µM, first compound 0.316 µM",37.5%
same,"viability, T/C","second compound 10 µM, first compound 1 µM",37.5%
same,"viability, T/C","second compound 10 µM, first compound 3.16 µM",26.1%
same,"viability, T/C","second compound 10 µM, first compound 10 µM",0.49%
